Experimental data as given in patent US20160251614A1, “CELL CULTURE MEDIUM AND BIOPROCESS OPTIMIZATION” (UNIVERSITY OF NOTRE DAME DU LAC, priority 2013, published 2016).

How the values were obtained:
Assay type in all cases: cell-based, Drosophila
S2 cells [1] = assay: Primary small molecule screen in ZO Fortified, CyQUANT Direct Proliferation Assay; settings: for compound z-score (zS2): 4 days, z vs negative control, hit cutoffs z=±3; for hit call, primary screen: hit cutoffs ±3
Protocol: (§1) Five stock plates of randomized compounds (410 total) were prepared at 75 μM in water (1:133 dilution) using an automated liquid handler (Eppendorf EPMotion 5075). Strategically located negative control wells were incorporated into the stock plates by dosing wells with DMSO (1:133, carrier only control). Randomly placed positive control wells were also included by dosing wells with DMSO (1:133); for flexibility, positive controls were prepared in the working stock. Working stocks plates at 2 and 20 μM (2×) were then prepared in ZO Fortified by diluting the 5 stock plates 1:3.75 (high concentration working stock) and then serially diluting 1:10 (low concentration working stock). Positive control wells were prepared by replacing 10% of the media with 100% fly extract (FEX).
(§2) Cells were rinsed three times in PBS and seeded at a concentration of 50,000 cells/well (50 μL) in ZO Fortified (primary screen) or ZO Fortified supplemented with 2 μM spermidine (secondary screen) in 10 plates. Working stocks, 50 μL, were then immediately added on top of the cells (day 0). Plates were incubated at 25° C. for four days. On the fourth day, plates were imaged at 10× magnification on a confocal microscope using automated screen acquisition (Andor Spinning Disc Confocal Microscope, Metamorph Software). CyQUANT® Direct Proliferation Assay (Invitrogen) was then added (0.25× final conc.) and fluorescent intensity was measured with a plate reader (Biotek Synergy H2).
(§3) Five stock plates of randomized compounds in singlet (410 total) were prepared at 75 μM in water (1:133 dilution) using an automated liquid handler (Eppendorf epMotion® 5075). Ten strategically located negative controls were incorporated into each stock plate by dosing wells with DMSO (1:133, carrier only control) (Zhang, Optimal High-Throughput Screening: Practical Experimental Design and Data Analysis for Genome Scale RNAi Research, 2011). Four randomly placed positive control wells were also included on each plate by dosing wells with DMSO (1:133) for consistency, but for flexibility positive control treatments were prepared in the working stock. Working stocks at 2 and 20 μM (2×) were then prepared in ZO Fortified by diluting the 5 stock plates 1:3.75 (high concentration working stock) and then serially diluting 1:10 (low concentration working stock). Positive control wells were prepared by replacing 10% of the media with 100% fly extract (FEX) (see Zartman et al., Dev. Camb. Engl., 2013, 140, 667-674).
(§4) Cells were rinsed three times in phosphate buffered saline (PBS) and seeded at 50,000 cells/well (50 μL) in ZO Fortified. Working stocks, 50 μL, were then immediately added on top of the cells (day 0). Plates were incubated at 25° C. for four days, and then imaged at 10× magnification on a Nikon microscope using automated screen acquisition in MetaMorph® software. Plates were then treated with CyQUANT® (0.25× final concentration) for one hour at 25° C., and fluorescent intensity was measured with a plate reader (Biotek Synergy H2).
(§5) Strictly standardized mean difference (SSMD) scores for classifying assay quality were calculated with respect to negative controls on a plate-wise basis, with the average assay quality being excellent for both cell lines and screened concentrations. […] As a hit selection metric we used z-scores, which measure the number of standard deviations from the negative control that a small molecule treatment causes. Z-scores were calculated on a plate-wise basis, and hit cutoffs of z=±3 were selected. Visual inspection of images was used to remove false-positive hits, which generally occurred due to autofluorescence of a few of the compounds.

C1.8 cells [2] = assay: as above; settings: C1.8 cells in ZO Fortified; for compound z-score (zC1.8): 4 days, z vs negative control, hit cutoffs z=±3; for hit call, primary screen: hit cutoffs ±3
Protocol: as §1, §2, §3, §4, §5

S2 cells [3] = assay: Secondary screen in ZB Media (ZO Fortified with spermidine), CyQUANT; settings: hit cutoffs ±3
Protocol: as §1, §2
(§6) Representative positive and negative control wells can be found in FIG. 7. Compound z-scores were calculated similarly, hit cutoffs of ±3 were established visual inspection of confocal images was used to remove false-positive hits. This analysis yielded 8 C1.8 and 27 S2 positive hit compounds and 12 C1.8 and 27 S2 negative hit compounds (FIGS. 8-10).

C1.8 cells [4] = assay: as above; settings: C1.8 cells in ZB Media, hit cutoffs ±3
Protocol: as §1, §2, §6

S2 cells [5] = assay: Long-term culture in chemically defined medium; settings: passaged 1:2 retaining half of spent media
Protocol: (§7) Cells were rinsed 3× in PBS and then seeded at high confluency in ZO Fortified and ZB Media (ZO Fortified supplemented with 1 μM spermidine). Upon reaching confluency, cells were passaged 1:2 retaining half of the spent media.
(§8) C1.8, S2, and Kc167 (Kc) cells were expanded in optimized serum-containing media, C1.8, S2, and Kc167 media, respectively. C1.8 media contains M3 media (Sigma-Aldrich) supplemented with FBS (2%), insulin (5 μg/m), and fly extract (2.5%). S2 media is based on Schneider's media (Gibco® Life Technologies) supplemented with FBS (10%). Kc media containing M3 media supplemented with yeast extract (10 mg/mL), bactopeptone (25 mg/mL), and 5% FBS. All cell lines were obtained and cultured according to instructions from the Drosophila Genomics Resource Center (DGRC). Fly extract was prepared from adult yw flies as described by the DGRC. For culture in chemically defined media, cells were rinsed three times in PBS to remove residual serum and seeded at around 70% confluency in ZO Fortified or ZB Media (ZO Fortified with 1 μM spermidine added at time of passage). Upon reaching confluency, cells were passaged 1:2 retaining half the spent media, similar to routine maintenance in complete media, with cells passaged in ZB Media receiving fresh doses of 1 μM spermidine.

C1.8 cells [6] = assay: Long-term culture in chemically defined medium; settings: passaged 1:2 retaining half of spent media
Protocol: as §7, §8

ERK in C1.8 cells = assay: Western blot of ERK and dpERK (MAPK activity)
Protocol: (§9) For western blots, C1.8 and S2 cells were rinsed three times in PBS and seeded in tissue culture flasks at a concentration of 1,000,000 cell/mL in the various media. Cells were cultured until positive control samples (complete media) reached ˜90% confluency, at which point all cell samples were lysed for 30 minutes on ice in a buffer containing 50 mM Tris, 150 mM NaCl, 1% Nonidet P 40 substitute (Sigma 74385), and 1% Sigma protease inhibitor cocktail (P8340). Nucleic acid and cell debris were cleared by centrifugation at 12,000 rpm for 20 minutes at 4° C. Because polyamines are known to play roles in initiation of transcription and translation, “housekeeping” genes routinely used as loading controls for western blots are likely inappropriate for this application. Thus samples were normalized by total loaded protein. Sample protein concentrations were determined three independent times per sample using Coomassie Plus (Bradford) Assay (Thermo Scientific 23238). ANOVA comparison of loading concentrations across all samples found no significant variation between samples (p>0.34). Proteins were resolved by SDS-PAGE in reducing conditions, electroblotted to PVDF membranes (Hybone 10600087), and probed with either 1:1000 anti-rabbit p44/p42 MAPK (Erk1/2) (Cell Signaling) or 1:1500 anti-mouse MAPK (dpERK1/2) (Sigma). Blots were developed using WesternBreeze chromogenic western blot immunodetection kit (Invitrogen) and quantification was done in Fiji (Schindelin et al., Nat. Methods, 2012, 9, 676-682).

ERK in S2 cells = assay: Western blot of ERK and dpERK (MAPK activity); settings: spermidine supplementation, p>0.45
Protocol: as §9

[7] = tested on: polyamine-depleted C1.8 cells; assay: Polyamine-depleted spermidine dose-response, manual cell count; settings: ZO Fortified
Protocol: C1.8 cells were rinsed three times in PBS and seeded in ZO Fortified at 1×10^6 cell/mL. After nine days of culture in ZO Fortified, cells were harvested and seeded in tissue culture flasks in ZO Fortified supplemented with 0, 0.1, 1, or 10 μM spermidine (in triplicate). After 6 days of culture, cells were manually counted.

SMILES | compound z-score (zS2) (S2 cells [1]) | compound z-score (zC1.8) (C1.8 cells [2]) | hit call, primary screen (S2 cells [1]) | hit call, primary screen (C1.8 cells [2]) | further results
CC(C)(C)c1cc(/C=C(\C#N)C(N)=S)cc(C(C)(C)C)c1O [AG-879] | −13.9 | −17.3 |  |  | 
CC(O)=C(C#N)C(=O)Nc1cc(Br)ccc1Br [LFM-A13, α-cyano-β-hydroxy-β-methyl-N-(2,5-dibromophenyl)propen-amide] |  |  |  |  | hit call, secondary screen (S2 cells [3]): positive hit; hit call, secondary screen (C1.8 cells [4]): positive hit
CO[C@@H]1[C@H](N(C)C(=O)c2ccccc2)C[C@H]2O[C@]1(C)n1c3ccccc3c3c4c(c5c6ccccc6n2c5c31)C(=O)NC4 [PKC-412] | −11.0 | −17.1 |  |  | 
NCCCCN [putrescine, butane-1,4-diamine] |  |  | positive hits | positive hits | 
Cc1cc(/C=C/c2ccc3cc(N(C)C)ccc3[n+]2C)c(C)n1-c1ccccc1 [pyrvinium pamoate] | −13.0 | −17.7 |  |  | 
NCCCCNCCCN [spermidine] | 8.7 | 10.0 | positive hit | positive hit | passages reached in long-term culture (S2 cells [5]): 4 passages; passages reached in long-term culture (C1.8 cells [6]): ≥ 98 passages; passages reached in long-term culture (C1.8 cells [6]; listed as Spermidine): > 15 passages; ERK double phosphorylation (dpERK) (ERK in C1.8 cells; spermidine supplementation (ZB Media) vs ZO Fortified, p<0.012): increase ERK double phosphorylation; total ERK levels (ERK in C1.8 cells; spermidine supplementation, p>0.45): not significantly influenced; total ERK levels (ERK in S2 cells): not significantly influenced; proliferation (cell number) ([7]; 1 μM spermidine compared to 0 or 0.1 μM, 6 days, p<5×10^−10): significant increase in proliferation; proliferation (cell number) ([7]; higher dose (10 μM) spermidine, after 6 days): failed to produce any statistically significant increases in cell number
NCCCNCCCCNCCCN [spermine] | 17.7 | 10.4 | positive hit | positive hit | 
CN[C@@H]1C[C@H]2O[C@@](C)([C@@H]1OC)n1c3ccccc3c3c4c(c5c6ccccc6n2c5c31)C(=O)NC4 [staurosporine] | −17.3 | −18.6 |  |  | 
CC1=C(O)C(=O)[C@@H]2O[C@@H]2C1=O [terreic acid] |  |  |  |  | hit call, secondary screen (S2 cells [3]): positive hit; hit call, secondary screen (C1.8 cells [4]): positive hit
